According to ChEMBL document CHEMBL1201862, “PubChem BioAssay data set” (2004):
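Exposure lasted 48 hours, with cells grown in 96-well plates and compounds tested at five concentrations. GI50 = concentration required for 50% inhibition of growth.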 Calls of active or inactive are those of the source. Rule as the data show it: active = GI50 up to about 1.1 µM and inactive = higher.

Experiments:
Test in all cases: inhibition of tumour cell growth, NCI panel, 48 h
[1] = system: OVCAR-8
[2] = system: SR
[3] = system: Hs-578T
[4] = system: UO-31
[5] = system: M14
[6] = system: HOP-62
[7] = system: UACC-62
[8] = system: SF-295
[9] = system: MDA-N
[10] = system: ACHN
[11] = system: BT-549
[12] = system: UACC-257
[13] = system: OVCAR-3
[14] = system: HL-60
[15] = system: CAKI-1
[16] = system: NCI-H522
[17] = system: DU-145
[18] = system: EKVX
[19] = system: SK-OV-3
[20] = system: SN12C

Structure (SMILES)	GI50 [1]	GI50 [2]	GI50 [3]	GI50 [4]	GI50 [5]	GI50 [6]	GI50 [7]	GI50 [8]	GI50 [9]	GI50 [10]	GI50 [11]	GI50 [12]	GI50 [13]	GI50 [14]	GI50 [15]	GI50 [16]	GI50 [17]	GI50 [18]	GI50 [19]	GI50 [20]
C[C@H]1CCC/C=C/[C@@H]2C[C@H](OC3OC(CO)C(O)C(O)C3O)C[C@H]2[C@H](O)/C=C/C(=O)O1 (stereo not given in full)	39.5 µM (inactive)	> 100 µM (inactive)	30.1 µM (inactive)	24.4 µM (inactive)	46.9 µM (inactive)	> 100 µM (inactive)	35.6 µM (inactive)	77.6 µM (inactive)	36.3 µM (inactive)	> 100 µM (inactive)	> 100 µM (inactive)	26.5 µM (inactive)	55.6 µM (inactive)	> 100 µM (inactive)	> 100 µM (inactive)	44 µM (inactive)	> 100 µM (inactive)	> 100 µM (inactive)	40 µM (inactive)	> 100 µM (inactive)
COC(=O)c1ccccc1/C=C1\Cc2ccc3c(c2C1=O)CCCC3	> 100 µM (inactive)	> 100 µM (inactive)	> 100 µM (inactive)	> 100 µM (inactive)	> 100 µM (inactive)	> 100 µM (inactive)	> 100 µM (inactive)	> 100 µM (inactive)	> 100 µM (inactive)	> 100 µM (inactive)	> 100 µM (inactive)	> 100 µM (inactive)	> 100 µM (inactive)	> 10 µM (inactive)	> 100 µM (inactive)	> 100 µM (inactive)	> 100 µM (inactive)	> 100 µM (inactive)	> 100 µM (inactive)	> 100 µM (inactive)
C/C(=N\O)c1ccc2cc(Br)c3ccccc3c2c1	24.8 µM (inactive)	24.6 µM (inactive)	23.9 µM (inactive)	15.7 µM (inactive)	18.2 µM (inactive)	20.2 µM (inactive)	17.7 µM (inactive)	15.6 µM (inactive)	15.7 µM (inactive)	23.6 µM (inactive)	27.5 µM (inactive)	16.9 µM (inactive)	16.9 µM (inactive)	20.7 µM (inactive)	25.1 µM (inactive)	15.1 µM (inactive)	39.4 µM (inactive)	19.1 µM (inactive)	32.3 µM (inactive)	14.8 µM (inactive)
CCN(CC)c1ccc(/C=C2/C[N+](C)(C)C/C(=C/c3ccc(N(CC)CC)cc3)C2=O)cc1	3.32 µM (inactive)	0.968 µM (active)	2.47 µM (inactive)	> 58.9 µM (inactive)	2.4 µM (inactive)	5.55 µM (inactive)	2.01 µM (inactive)	11.9 µM (inactive)	1.66 µM (inactive)	32 µM (inactive)	1.61 µM (inactive)	2.09 µM (inactive)	2.12 µM (inactive)	0.365 µM (active)	> 48 µM (inactive)	2.06 µM (inactive)	6.05 µM (inactive)	5.96 µM (inactive)	9.29 µM (inactive)	3.17 µM (inactive)
CCC1CCC2C3CC=C4CC(OC(C)=O)C(N)CC4(C)C3CCC12C (stereo not given)	2.05 µM (inactive)	2.25 µM (inactive)	1.93 µM (inactive)	5.24 µM (inactive)	1.82 µM (inactive)	2.08 µM (inactive)	4.89 µM (inactive)	3.26 µM (inactive)	2.7 µM (inactive)	7.89 µM (inactive)	4.93 µM (inactive)	2.17 µM (inactive)	5.85 µM (inactive)	2 µM (inactive)	8.55 µM (inactive)	2.51 µM (inactive)	2.92 µM (inactive)	4.62 µM (inactive)	9.53 µM (inactive)	5.3 µM (inactive)
